The test concerns the target T1, 3-mercaptopyruvate sulfurtransferase (3-MST) (Homo sapiens, UniProt P25325).
T1 sequence (P25325 2-297): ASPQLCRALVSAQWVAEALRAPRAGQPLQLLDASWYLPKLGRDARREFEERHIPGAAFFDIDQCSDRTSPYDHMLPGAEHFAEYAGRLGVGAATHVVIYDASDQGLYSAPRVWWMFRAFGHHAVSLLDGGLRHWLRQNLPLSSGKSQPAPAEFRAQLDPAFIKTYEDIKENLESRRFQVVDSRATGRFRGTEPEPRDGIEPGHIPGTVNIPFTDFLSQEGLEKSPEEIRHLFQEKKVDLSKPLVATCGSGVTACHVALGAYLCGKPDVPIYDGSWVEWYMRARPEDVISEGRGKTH
Description: biochemical 3-MST inhibition assay, concentration-response.

Molecules are shown by their SMILES.

A word on the IC50: it is the concentration that inhibits the measured activity by half. Read a high IC50 as weaker potency in that assay. `COc1cc2cc(Oc3ccc4ccc(=O)oc4c3)c(=O)oc2cc1O` [compound 5, Daphnoretin] registered an IC50 of 9.59 ± 1.22 µM.

Values taken from PMC13050340 (Journal of Computer-Aided Molecular Design, 2026).
